Experimental data taken from patent US20120015925A1, “NOVEL BENZOTHIAZEPINE AND BENZOTHIEPINE COMPOUNDS” (ASAHI KASEI PHARMA CORPORATION, priority 2004, published 2012).

What was measured:
rat IBAT = biological target: T1, rat IBAT (Rattus norvegicus, UniProt Q62633); test: In vitro assay using Cos 7 cells, transiently expressed rat IBAT; assay type: cell-based; conditions: 37° C., 60 minutes
T1 sequence (Q62633 1-348): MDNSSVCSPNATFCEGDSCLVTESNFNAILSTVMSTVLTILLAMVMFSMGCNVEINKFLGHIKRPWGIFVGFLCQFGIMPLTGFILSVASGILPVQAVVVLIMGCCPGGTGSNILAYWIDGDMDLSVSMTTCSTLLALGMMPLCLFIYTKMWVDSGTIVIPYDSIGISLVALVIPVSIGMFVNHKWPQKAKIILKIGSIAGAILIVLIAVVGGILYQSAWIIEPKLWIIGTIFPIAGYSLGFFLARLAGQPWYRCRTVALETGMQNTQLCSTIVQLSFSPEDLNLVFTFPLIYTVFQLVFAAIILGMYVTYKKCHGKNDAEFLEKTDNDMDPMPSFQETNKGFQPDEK
Method: In the present Test Example, an in vitro assay of compounds using Cos 7 cells as to inhibitory activity on transiently expressed human IBAT or rat IBAT transporter was performed according to the method described in Am. J. Physiol., 274, G157-169.
That is, […] cells/well of Cos 7 cells were seeded in a 24-well plate, and after one day, the cells were transfected with 0.3 μg/well of cDNA of human IBAT or rat IBAT using FuGENE6 (supplied from Roche). After culturing for one day after the transfection, the cells were washed once with the assay buffer, i.e., Hanks buffer containing 25 mM glucose and 10 mM HEPES (pH 7.4). The assay buffer was then replaced with the assay buffer containing the test compound. [^3H]-Taurocholate at a final concentration of 8 μM was added thereto and incubated at 37° C. for 60 minutes so that [^3H]-taurocholate was taken into Cos 7 cells by the action of human IBAT or rat IBAT. The cells were washed twice with the assay buffer containing 1 mM taurocholate, and subsequently lysed with 0.2 M NaOH to stop the reaction. The cell lysate was added to 4 mL of liquid scintillation cocktail, which was then thoroughly vortexed. Then the radioactivity was measured using the liquid scintillation counter.

Caco-2 cell = test: Gastrointestinal toxicity: cytotoxicity against Caco-2 cell (LDH activity); assay type: cell-based, human; conditions: 2 hours, LDH activity in medium relative to cell lysis agent = 100%
Method: That is, 10,000 cells/well of Caco-2 cells (purchased from ATCC) were seeded in a 96-well plate [MEM-E medium, 10% FBS (Fetal Bovine Serum), 1% NEAA (Non Essential Amino Acid) solution, supplied from Gibco]. After culturing for 48 hours, the test compound diluted with the medium was added to each well. After 2 hours, 50 μL of the medium was collected, and an LDH activity in the medium was measured using an LDH activity measurement kit (CytoTox96 Non-Radioactive Cytotoxicity Assay, supplied from Promega). Defining the LDH activity of the Caco-2 cells treated with a cell lysis agent as being 100%, the relative activity was calculated as a index of the cytotoxicity.

human IBAT = biological target: T2, human IBAT (Homo sapiens, UniProt Q12908); test: In vitro assay using Cos 7 cells, transiently expressed human IBAT; assay type: cell-based; conditions: 37° C., 60 minutes
T2 sequence (Q12908 1-348): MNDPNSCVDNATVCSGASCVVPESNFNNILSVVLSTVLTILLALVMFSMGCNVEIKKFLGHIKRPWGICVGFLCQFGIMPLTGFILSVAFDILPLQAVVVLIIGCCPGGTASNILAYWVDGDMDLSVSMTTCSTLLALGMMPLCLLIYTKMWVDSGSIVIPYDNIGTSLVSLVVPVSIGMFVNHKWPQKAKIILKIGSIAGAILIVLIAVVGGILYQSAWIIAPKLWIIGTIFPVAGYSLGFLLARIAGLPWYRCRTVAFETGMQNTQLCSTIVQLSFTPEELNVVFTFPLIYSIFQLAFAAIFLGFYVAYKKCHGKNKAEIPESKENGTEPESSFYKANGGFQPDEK
Outline: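 Cos 7 cells transfected with human or rat IBAT cDNA were assayed one day later in Hanks buffer with 25 mM glucose and 10 mM HEPES (pH 7.4) containing compound. [^3H]-taurocholate (8 μM final) uptake ran 60 min at 37° C. Cells were washed with 1 mM taurocholate, lysed in NaOH, and counted by liquid scintillation.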

rats dosed cholic acid = test: Lowering effect on bile acid concentrations in portal vein blood in rats dosed cholic acid; assay type: in vivo, rat
Method: In the present Test Example, a lowering effect on bile acid concentrations in portal vein blood in rats dosed cholic acid was evaluated according to the method described in Jpn. Pharmacol. Ther., Vol. 24 Supplement, 1996, 103(S-577)-110(S-584).
That is, SD (IGS) strain male rats at 7 to 9 weeks of age were fasted one day before the administration date. […] The blood was collected from the portal vein 2 hours after the forced oral administration, and a total bile acid value in serum was measured to examine the effect of the test compound (n=6). As a control, another group (n=6) merely received cholic acid (200 mg/kg), to which the same procedure was applied. The cholic acid value was measured using the commercially available kit (brand name: Total Bile Acid-Test Wako, supplied form Wako Pure Chemical Industries). Defining the value in the control group to which no test compound had been administered as being 100%, a reduction rate (%) of the bile acid value when a certain amount of the test compound had been administered was calculated.

[1] = test system: rats fed cholesterol food; test: Blood cholesterol lowering effect in rats fed cholesterol food; assay type: in vivo, rat; conditions: 0.3 mg/kg per administration, oral, twice per day; SD (IGS) male rats; serum 3 hours after final administration
Method: In the present Test Example, a blood cholesterol lowering effect on rats fed cholesterol food was evaluated according to the method described in J. Lipid Res., 1995, 36, 1098-1105.
That is, the food containing 0.4% cholesterol and 0.5% bile acid was given to SD (IGS) strain male rats at 7 to 9 weeks of age for 5 days in advance of the test date, to increase blood cholesterol levels. The rats in which the blood cholesterol level had been obviously elevated from the level before loading the cholesterol food were selected as the subjects in the test. Colestimide (brand name: Cholebine 70% granules, supplied from Mitsubishi Tokyo Pharmaceutical Inc.) which is an anion exchange resin drug was suspended in distilled water, and the test compound was dissolved or suspended in distilled water. They were orally administered forcibly twice per day everyday from the starting date (each n=8). The blood was collected from jugular vein 3 hours after the drug administration on the final day of the experiment, and the cholesterol level in serum was measured to examine the effect of the test compound. As a control, another group (n=8) was merely fed cholesterol food, to which distilled water (1 mL/kg) was administered and the same procedure was applied. The total cholesterol value and the HDL cholesterol value were measured using commercially available kits. The value obtained by subtracting the HDL cholesterol value from the total cholesterol value was regarded as an LDL+VLDL cholesterol value.

[2] = 0.1 mg/kg oral, surfactant HCO-60 0.1%, cholic acid 200 mg/kg, portal vein blood 2 hours after administration
[3] = 0.1 mg/kg oral with cholic acid 200 mg/kg, portal vein serum total bile acid 2 hours after, control = 100%, surfactant HCO-60 (##)
[4] = 0.1 mg/kg oral, surfactant Tween 20 0.05%, cholic acid 200 mg/kg, portal vein blood 2 hours after administration

IC50 (rat IBAT; [3H]-taurocholate 8 μM uptake) [µM] | IC50 (human IBAT; [3H]-taurocholate 8 μM uptake) [µM] | Structure (SMILES) | CELL TOXICITY AGAINST Caco2 3 μM (Caco-2 cell) [%] | CELL TOXICITY AGAINST Caco2 10 μM (Caco-2 cell) [%] | CELL TOXICITY AGAINST Caco2 30 μM (Caco-2 cell) [%] | BILE ACID REDUCTION RATE (%) IN RAT MODEL WITH CHOLIC ACID LOADING (rats dosed cholic acid; [2]) [%] | BILE ACID REDUCTION RATE (%) IN RAT MODEL WITH CHOLIC ACID LOADING (rats dosed cholic acid; [3]) [%] | BILE ACID REDUCTION RATE (%) IN RAT MODEL WITH CHOLIC ACID LOADING (rats dosed cholic acid; [4]) [%] | IC50 (rat IBAT; [3H]-taurocholate 8 μM) [µM] | IC50 (human IBAT; [3H]-taurocholate 8 μM) [µM] | LDL + VLDL REDUCTION RATE (%) IN CHOLESTEROL FED RAT MODEL (THERAPEUTIC MODEL) [1] [%]
0.005 | 0.037 | CCCCC1(CCCC)CS(=O)(=O)c2ccc(N(C)C)cc2C(c2cccc(NC(=S)Nc3ccc(C[N+]45CCC(CC4)CC5)cc3)c2)N1.[Br-] (racemic) [EXAMPLE 3695] | <1 | <1 | <1 | 23 |  |  |  |  | 
 | 0.041 | CCCCC1(CCCC)CS(=O)(=O)c2ccc(N(C)C)cc2C(c2cccc(NC(=S)Nc3ccc(C[N+]4(Cc5ccccc5)CCCC(CO)C4)cc3)c2)N1.[Br-] (stereo not drawn) [EXAMPLE 3607] | <1 | <1 | <1 | 36 |  |  |  |  | 
 | 0.059 | CCCCC1(CCCC)CS(=O)(=O)c2ccc(N(C)C)cc2C(c2cccc(NC(=S)Nc3ccc(C[N+]4(Cc5ccccc5)CCC(CCO)CC4)cc3)c2)N1.[Br-] (stereo not drawn) [EXAMPLE 3608] | <1 | <1 | <1 | 43 |  |  |  |  | 
 | 0.052 | CCCCC1(CCCC)CS(=O)(=O)c2ccc(N(C)C)cc2C(c2cccc(NC(=S)Nc3ccc(C[n+]4ccc(CC)cc4)cc3)c2)N1.[Br-] (stereo not drawn) [EXAMPLE 3710] | <1 | <1 | <1 |  | 20 |  |  |  | 
 | 0.048 | CCCCC1(CCCC)CS(=O)(=O)c2ccc(N(C)C)cc2C(c2cccc(NC(=S)Nc3ccc(C[n+]4ccc5ccccc5c4)cc3)c2)N1.[Br-] (stereo not drawn) [EXAMPLE 3783] | <1 | <1 | <1 |  | 16 |  |  |  | 
 | 0.043 | CCCCC1(CCCC)CS(=O)(=O)c2ccc(N(C)C)cc2C(c2cccc(NC(=S)CCCCC[N+](C)(C)Cc3ccccc3)c2)N1.[Br-] (stereo not drawn) [EXAMPLE 3835] | <1 | <1 | <1 |  |  | 23 |  |  | 
0.009 | 0.028 | CCCCC1(CCCC)CS(=O)(=O)c2ccc(N(C)C)cc2C(c2cccc(NC(=S)CCCCC[N+]34CCC(c5ccccc5)(CC3)CC4)c2)N1.[Br-] (stereo not drawn) [EXAMPLE 3853] | <1 | <1 | <1 | 36 |  |  |  |  | 
0.009 | 0.036 | CCCCC1(CCCC)CS(=O)(=O)c2ccc(N(C)C)cc2C(c2cccc(NC(=S)CCCCCCC[N+]34CCC(CC3)CC4)c2)N1.[Br-] (stereo not drawn) [EXAMPLE 3932] |  |  |  |  |  | 30 |  |  | 
 |  | CCCCC1(CCCC)CS(=O)(=O)c2ccc(N(C)C)cc2C(c2cccc(NC(=S)Nc3ccc(C[N+]45CCC(c6ccccc6)(CC4)CC5)c(C)c3)c2)N1.[Br-] (stereo not drawn) [EXAMPLE P341] |  | <1 | <1 |  | 32 |  | 0.0043 | 0.022 | 33
0.0048 | 0.015 | CCCCC1(CCCC)CS(=O)(=O)c2ccc(N(C)C)cc2C(c2cccc(NC(=S)Nc3ccc(C[N+]45CCC(c6ccccc6)(CC4)CC5)cc3F)c2)N1.[Br-] (stereo not drawn) [EXAMPLE P342] |  | <1 | <1 |  | 39 |  |  |  | 46
0.0055 | 0.016 | CCCCC1(CCCC)CS(=O)(=O)c2ccc(N(C)C)cc2C(c2cccc(NC(=S)Nc3ccc(C[N+]45CCC(c6ccccc6)(CC4)CC5)c(F)c3)c2)N1.[Br-] (stereo not drawn) [EXAMPLE P343] |  | <1 | <1 |  |  |  |  |  | 
0.006 | 0.019 | CCCCC1(CCCC)CS(=O)(=O)c2ccc(N(C)C)cc2C(c2cccc(NC(=S)Nc3ccc(C[N+]45CCC(c6ccccc6)(CC4)CC5)cc3Br)c2)N1.[Br-] (stereo not drawn) [EXAMPLE P346] |  | <1 | <1 |  |  |  |  |  | 
 |  | CCCCC1(CCCC)CS(=O)(=O)c2ccc(N(C)C)cc2C(c2cccc(NC(=S)Nc3ccc(C[n+]4ccc(C(C)(C)C)cc4)c(C)c3)c2)N1.[Br-] (stereo not drawn) [EXAMPLE P365] |  |  |  |  | 40 |  |  | 0.047 | 44
 | 0.025 | CCCCC1(CCCC)CS(=O)(=O)c2ccc(N(C)C)cc2C(c2cccc(NC(=S)Nc3ccc(C[n+]4ccc(C(C)(C)C)cc4)cc3F)c2)N1.[Br-] (stereo not drawn) [EXAMPLE P366] |  |  |  |  | 45 |  |  |  | 31
